According to patent publication US20130085161A1, “PIPERIDINYL SUBSTITUTED 1,3-DIHYDRO-BENZOIMIDAZOL-2-YLIDENEAMINE DERIVATIVES” (NOVARTIS AG, priority 2010, published 2013):

target: T1, BaF3-Tel-IGF1-R (Homo sapiens, UniProt P08069); assay: BaF3 cell viability assay (resazurin), 384-well format; assay type: cell-based; conditions: 384-well plate format; 48 h incubation; resazurin dye reduction; cell proliferation/viability
T1 construct: the kinase domain of IGF-1R (aa 976-1367) linked by a Ser-Arg-linker; expressed in transfected cells; host or cells: BaF3 murine proB-cell lymphoma cells, stably transduced
T1 sequence (P08069 976-1367): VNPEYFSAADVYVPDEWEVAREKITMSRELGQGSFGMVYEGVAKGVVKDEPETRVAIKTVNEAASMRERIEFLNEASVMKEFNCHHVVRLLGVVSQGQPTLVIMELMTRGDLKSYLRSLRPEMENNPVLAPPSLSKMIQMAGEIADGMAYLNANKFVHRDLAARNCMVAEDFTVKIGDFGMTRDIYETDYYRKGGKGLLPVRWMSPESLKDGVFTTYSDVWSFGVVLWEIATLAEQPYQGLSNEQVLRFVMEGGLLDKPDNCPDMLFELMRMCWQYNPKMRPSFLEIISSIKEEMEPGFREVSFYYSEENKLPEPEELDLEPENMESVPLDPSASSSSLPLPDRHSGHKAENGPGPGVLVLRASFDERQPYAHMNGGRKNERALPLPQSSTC
From the text: BaF3-Tel-IGF1-R and BaF3-InsR are BaF3 murine proB-cell lymphoma cell derivatives [the BaF3 cell line (also termed Ba/F3) is available from the German Collection of Microorganisms and Cell Cultures (DSMZ), Braunschweig, Germany] that have been rendered IL-3-independent by stable transduction with kinase-activating fusions between human TEL (aa 1-452) and the kinase domain of IGF-1R (aa 976-1367) linked by a Ser-Arg-linker (Boulay et al, Cancer Res 68, 3743-3751, 2008), and a fusion between human TEL (aa 1-337) and the kinase domain (aa 1015-1382) of the Insulin receptor (Melnick J S et al, Proc Natl Acad Sci USA 103, 3153-3158, 2006), respectively. Cells are cultured in RPMI-1640 (Animed #1-14F01-1) supplemented with 2% L-glutamine (Animed #5-10K50-H) and 10% fetal calf serum (FCS, Animed #2-01F16-I). Wild-type, untransfected BaF3 cells are maintained in above medium plus 10 U/ml IL-3 (mouse Interleukin-3, Roche #1380745 or Invitrogen # PMC0035) and are used to identify non-selective, generally growth-inhibitory compounds. Cells (1.5×10^4 cells per well) are seeded in 190 μl fresh medium into 96-well plates. 10 μl 20× compound solutions are added. As internal control, the kinase inhibitor PKC412 is routinely used. Control cells treated with DMSO (0.1% final concentration) serve as growth reference (set as 100% growth). In addition, a plate blank value is routinely determined in a well containing only […] of medium and no cells. IC50 determinations are performed based on eight 3-fold serial dilutions of the test compound, starting at 10 μM. Following incubation of the cells for 48 h at 37° C. and 5% CO2, the effect of inhibitors on cell viability is assessed by the resazurin sodium salt dye reduction assay (commercially known as AlamarBlue assay) basically as previously described (O'Brien J. et al., Eur. J. Biochem. 267: 5421-5426, 2000). Briefly, 20 μl dye solution is added per well and the plates incubated for 6 h at 37° C. and 5% CO2. Thereafter, fluorescence is measured using a Saphirell 96-well plate reader (TECAN, Männedorf, Switzerland) with the following settings: Excitation 544 nm and Emission 590 nm. For data analysis, the plate blank value is subtracted from all data points. The effect of a particular test compound concentration on cell proliferation and viability is expressed as percentage of the blank-corrected reading obtained for cells treated with vehicle only, which is set as 100%. IC50 values can be determined using XLfit (V4.2), applying standard four parameter logistic model #205 (IDBS, Guilford, UK) or other common curve-fitting software.
To achieve a higher throughput, the cell viability assay can also be performed in a 384-well format. Briefly, 4′500 freshly diluted cells are seeded in 54 μl/well into 384-well plates using a liquid dispenser. 6 μl 10× compound solution is added to the cell plate. As internal control, the kinase inhibitor PKC412 is routinely used. Control cells treated with DMSO (0.1% final concentration) serve as growth reference (set as 100% growth). In addition, a plate blank value is routinely determined in a well containing only 60 μl of medium and no cells. Dose-response effects are determined by 3-fold serial compound dilutions, starting at 10 μM. Following incubation of the cells for 48 h at 37° C. and 5% CO2, the effect of compounds on cell proliferation/viability is assessed by addition of 6 μl resazurin sodium salt dye solution per well. Following incubation for an additional 6 hrs at 37° C. and 5% CO2, fluorescence is measured using an Infiniti M1000 microplate reader (TECAN, Männedorf, Switzerland) with excitation and emission wavelengths set at 544 and 590 nm, respectively. For data analysis, the plate blank value is subtracted from all data points. IC50 values can be determined by four parameter logistic fitting as described above.

Compound	IC50 [nM]
CC(=O)Nc1ccc(Cl)cc1N1CCC(n2c(=N)n(Cc3cccc4[nH]ccc34)c3ccc(F)cc32)CC1 [Example 61, N-(4-Chloro-2-{4-[6-fluoro-2-imino-3-(1H-indol-4-ylmethyl)-2,3-dihydro-benzoimidazol-1-yl]-piperidin-1-yl}-phenyl)-acetamide]	8
CC(=O)Nc1ccc(C(F)(F)F)cc1N1CCC(n2c(=N)n(Cc3ccccc3Cl)c3ccccc32)CC1 [Example 56.7, N-(2-{4-[3-(2-Chloro-benzyl)-2-imino-2,3-dihydro-benzoimidazol-1-yl]-piperidin-1-yl}-4-trifluoromethyl-phenyl)-acetamide]	69
CC(=O)Nc1ccccc1N1CCC(n2c(=N)n(Cc3cccc4[nH]ccc34)c3ccc(F)cc32)CC1 [Example 56.19, N-(2-{4-[6-Fluoro-2-imino-3-(1H-indol-4-ylmethyl)-2,3-dihydro-benzoimidazol-1-yl]-piperidin-1-yl}-phenyl)-acetamide]	382
CC(=O)Nc1ccc(C#N)cc1N1CCC(n2c(=N)n(Cc3ccccc3Cl)c3ccccc32)CC1 [Example 56.9, N-(2-{4-[3-(2-Chloro-benzyl)-2-imino-2,3-dihydro-benzoimidazol-1-yl]-piperidin-1-yl}-4-cyano-phenyl)-acetamide]	82
CC(=O)Nc1ccc(Cl)cc1N1CCC(n2c(=N)n(Cc3cccc4[nH]ccc34)c3ccccc32)CC1 [Example 57]	15
CC(=O)Nc1ccc(Cl)cc1N1CC[C@H](n2c(=N)n(Cc3cccc4[nH]cnc34)c3ccc(F)cc32)[C@@H](O)C1 (racemic) [Example 67.7, Rac-trans-N-(2-{4-[3-(1H-Benzo-imidazol-4-ylmethyl)-6-fluoro-2-imino-2,3-dihydro-benzo-imidazol-1-yl]-3-hydroxy-piperidin-1-yl}-4-chloro-phenyl)-acetamide]	644
CC(=O)Nc1ccc(Cl)cc1N1CC[C@H](n2c(=N)n(Cc3cccc4[nH]ccc34)c3ccccc32)[C@@H](O)C1 (racemic) [Example 67.5, Rac-trans-N-(4-Chloro-2-{3-hydroxy-4-[2-imino-3-(1H-indol-4-ylmethyl)-2,3-dihydro-benzoimidazol-1-yl]-piperidin-1-yl}-phenyl)-acetamide]	30
CC(=O)Nc1ccc(Cl)cc1N1CC[C@H](n2c(=N)n(Cc3cccc4[nH]ccc34)c3ccc(F)cc32)[C@@H](O)C1 (racemic) [Example 67, Rac-trans-N-(4-Chloro-2-{4-[6-fluoro-2-imino-3-(1H-indol-4-ylmethyl)-2,3-dihydro-benzoimidazol-1-yl]-3-hydroxy-piperidin-1-yl}-phenyl)-acetamide]	23
CC(=O)Nc1ccccc1N1CCC(n2c(=N)n(Cc3ccccc3Cl)c3ccc(F)cc32)CC1 [Example 56.18, N-(2-{4-[3-(2-Chloro-benzyl)-6-fluoro-2-imino-2,3-dihydro-benzoimidazol-1-yl]-piperidin-1-yl}-phenyl)-acetamide]	119
CC(=O)Nc1ccc(C)cc1N1CCC(n2c(=N)n(Cc3cccc4[nH]ccc34)c3ccccc32)CC1 [Example 56, N-(2-{4-[2-Imino-3-(1H-indol-4-ylmethyl)-2,3-dihydro-benzoimidazol-1-yl]-piperidin-1-yl}-4-methyl-phenyl)acetamide]	< 4.5
CC(=O)Nc1ccc(C)cc1N1CCC(n2c(=N)n(Cc3cccc4[nH]ccc34)c3ccc(F)cc32)CC1 [Example 56.15, N-(2-{4-[6-Fluoro-2-imino-3-(1H-indol-4-ylmethyl)-2,3-dihydro-benzoimidazol-1-yl]-piperidin-1-yl}-4-methyl-phenyl)-acetamide]	41
CC(=O)Nc1ccc(C)nc1N1CC[C@H](n2c(=N)n(Cc3cccc4[nH]ccc34)c3ccc(F)cc32)[C@@H](O)C1 (racemic) [Example 67.3, Rac-trans-N-{4-[6-Fluoro-2-imino-3-(1H-indol-4-yl-methyl)-2,3-dihydro-benzo-imidazol-1-yl]-3-hydroxy-6′-methyl-3,4,5,6-tetrahydro-2H-[1,2′]bipyridinyl-3′-yl}-acetamide]	167
CC(=O)Nc1ccc(Cl)cc1N1CCC(n2c(=N)n(Cc3ccccc3Cl)c3ccccc32)CC1 [Example 58, N-(4-Chloro-2-{4-[3-(2-chloro-benzyl)-2-imino-2,3-dihydro-benzoimidazol-1-yl]-piperidin-1-yl}-phenyl)-acetamide]	37
CC(=O)Nc1ccc(C)cc1N1CCC(n2c(=N)n(Cc3ccccc3Cl)c3ccc(F)cc32)CC1 [Example 56.12, N-(2-{4-[3-(2-Chloro-benzyl)-6-fluoro-2-imino-2,3-dihydro-benzoimidazol-1-yl]-piperidin-1-yl}-4-methyl-phenyl)-acetamide]	48
CC(=O)Nc1ccc(Cl)cc1N1CC[C@H](n2c(=N)n(Cc3cccc4[nH]nnc34)c3ccc(F)cc32)[C@@H](O)C1 (racemic) [Example 67.6, Rac-trans-N-(2-{4-[3-(1H-Benzo-triazol-4-ylmethyl)-6-fluoro-2-imino-2,3-dihydro-benzoimidazol-1-yl]-3-hydroxy-piperidin-1-yl}-4-chloro-phenyl)-acetamide]	517
CC(=O)Nc1ccc(C)nc1N1CC[C@H](n2c(=N)n(Cc3cccc4[nH]ccc34)c3ccccc32)[C@@H](O)C1 (racemic) [Example 67.4, Rac-trans-N-{3-Hydroxy-4-[2-imino-3-(1H-indol-4-ylmethyl)-2,3-dihydro-benzoimidazol-1-yl]-6′-methyl-3,4,5,6-tetrahydro-2H-[1,2′]bipyridinyl-3′-yl}-acetamide]	1010
CC(=O)Nc1ccc(C(F)(F)F)cc1N1CCC(n2c(=N)n(Cc3cccc4[nH]ccc34)c3ccc(F)cc32)CC1 [Example 56.16, N-(2-{4-[6-Fluoro-2-imino-3-(1H-indol-4-ylmethyl)-2,3-dihydro-benzoimidazol-1-yl]-piperidin-1-yl}-4-trifluoromethyl-phenyl)-acetamide]	39
CC(=O)Nc1ccc(C#N)cc1N1CCC(n2c(=N)n(Cc3cccc4[nH]ccc34)c3ccc(F)cc32)CC1 [Example 56.11, N-(4-Cyano-2-{4-[6-fluoro-2-imino-3-(1H-indol-4-ylmethyl)-2,3-dihydro-benzoimidazol-1-yl]-piperidin-1-yl}-phenyl)-acetamide]	16
CC(=O)Nc1ccc(Cl)cc1N1CCC(n2c(=N)n(Cc3cccc4[nH]cnc34)c3ccc(F)cc32)CC1 [Example 64, N-(2-{4-[3-(1H-Benzoimidazol-4-ylmethyl)-6-fluoro-2-imino-2,3-dihydro-benzoimidazol-1-yl]-piperidin-1-yl}-4-chloro-phenyl)-acetamide]	163
CC(=O)Nc1ccc(Cl)cc1N1CC[C@H](n2c(=N)n(Cc3ccccc3Cl)c3ccc(F)cc32)[C@@H](O)C1 (racemic) [Example 67.1, Rac-trans-N-(4-Chloro-2-{4-[3-(2-chloro-benzyl)-6-fluoro-2-imino-2,3-dihydro-benzo-imidazol-1-yl]-3-hydroxy-piperidin-1-yl}-phenyl)-acetamide]	10
COc1ccc(NC(C)=O)c(N2CCC(n3c(=N)n(Cc4cccc5[nH]ccc45)c4ccccc43)CC2)c1 [Example 56.1, N-(2-{4-[2-Imino-3-(1H-indol-4-ylmethyl)-2,3-dihydro-benzoimidazol-1-yl]-piperidin-1-yl}-4-methoxy-phenyl)-acetamide]	35
